From patent US20070037230A1 (priority 2005, published 2007)

Legend:
Type in all cases: binding
[1] = test system: Bacillus subtilis
[2] = test system: Bacillus thuringiensis
[3] = test system: Bacillus cereus
[4] = test system: biotinylated Bacillus anthracis spores
[5] = test system: Bacillus licheniformis
[6] = test system: Bacillus megaterium
[7] = test system: Bacillus anthracis spores
[8] = test system: Bacillus anthracis spores; remark: listed apart in the source

Which “bound to Bacillus anthracis fold better than to Bacillus subtilis” value [1] does the source give for ETRVPHGA here?
Its value is 24 fold.

What about the “bound to Bacillus anthracis fold better than to Bacillus thuringiensis” value [2] of the same sequence?
The value was 2.2 fold.

And the “bound to Bacillus anthracis fold better than to Bacillus cereus” value [3]?
The value was 2.4 fold.

And the “binding in the ELISA” value [4]?
The value was “high binding”.

What about the “bound to Bacillus anthracis fold better than to Bacillus licheniformis” value [5] of the same sequence?
Its value is 12 fold.

What about the “bound to Bacillus anthracis fold better than to Bacillus megaterium” value [6] of the same sequence?
Its value is 24 fold.

For EPRLSPHS, which “bound to Bacillus anthracis fold better than to Bacillus subtilis” value [1] is on record?
The value was 39 fold.

And the “binding in the phage-capture assay (percentage recovery, eluted to input phage)” value [7]?
The value was “high binding”.

And the “bound to Bacillus anthracis fold better than to Bacillus thuringiensis” value [2]?
Its value is 6.9 fold.

And the “bound to Bacillus anthracis fold better than to Bacillus cereus” value [3]?
The value was 3.5 fold.

What about the “binding in the ELISA” value [4] of the same sequence?
Its value is “high binding”.

What about the “bound to Bacillus anthracis fold better than to Bacillus licheniformis” value [5] of the same sequence?
The value was 70 fold.

What about the “bound to Bacillus anthracis fold better than to Bacillus megaterium” value [6] of the same sequence?
Its value is 43 fold.

For VTRNTSAS, which “binding in the phage-capture assay (percentage recovery, eluted to input phage)” value [7] is on record?
Its value is “high binding”.

And the “binding of phage to spores in ELISA revealed with monoclonal antibody BD8” value [8]?
Its value is “specific binding”.

And the “binding in the ELISA” value [4]?
Its value is “high binding”.

Which “binding in the phage-capture assay (percentage recovery, eluted to input phage)” value [7] does the source give for DRTGATLT here?
The value was “high binding”.

With DARGTTHM as the sequence, how does the “bound to Bacillus anthracis fold better than to Bacillus subtilis” value [1] read?
The value was 25 fold.

And the “binding in the phage-capture assay (percentage recovery, eluted to input phage)” value [7]?
Its value is “high binding”.

And the “bound to Bacillus anthracis fold better than to Bacillus thuringiensis” value [2]?
The value was 2.1 fold.

And the “bound to Bacillus anthracis fold better than to Bacillus cereus” value [3]?
Its value is 3.7 fold.

And the “binding in the ELISA” value [4]?
The value was “high binding”.

And the “bound to Bacillus anthracis fold better than to Bacillus licheniformis” value [5]?
Its value is 50 fold.

And the “bound to Bacillus anthracis fold better than to Bacillus megaterium” value [6]?
The value was 75 fold.

Which “binding in the phage-capture assay (percentage recovery, eluted to input phage)” value [7] does the source give for EPRAPASL here?
Its value is “high binding”.
